Assay results from publication PMC6222666, “Rutacecarpine Inhibits Angiogenesis by Targeting the VEGFR2 and VEGFR2-Mediated Akt/mTOR/p70s6k Signaling Pathway” (Molecules : A Journal of Synthetic Chemistry and Natural …, 2018).

Target: T1, VEGFR2 (vascular endothelial growth factor receptor 2) (Homo sapiens, UniProt P35968)
T1 construct: gene KDR
Experiment: SPR (Biacore T200, VEGFR2 immobilized on CM5 chip); also ELISA-based kinase assay IC50 […]
Assay type: binding

T1 sequence (P35968 20-1356): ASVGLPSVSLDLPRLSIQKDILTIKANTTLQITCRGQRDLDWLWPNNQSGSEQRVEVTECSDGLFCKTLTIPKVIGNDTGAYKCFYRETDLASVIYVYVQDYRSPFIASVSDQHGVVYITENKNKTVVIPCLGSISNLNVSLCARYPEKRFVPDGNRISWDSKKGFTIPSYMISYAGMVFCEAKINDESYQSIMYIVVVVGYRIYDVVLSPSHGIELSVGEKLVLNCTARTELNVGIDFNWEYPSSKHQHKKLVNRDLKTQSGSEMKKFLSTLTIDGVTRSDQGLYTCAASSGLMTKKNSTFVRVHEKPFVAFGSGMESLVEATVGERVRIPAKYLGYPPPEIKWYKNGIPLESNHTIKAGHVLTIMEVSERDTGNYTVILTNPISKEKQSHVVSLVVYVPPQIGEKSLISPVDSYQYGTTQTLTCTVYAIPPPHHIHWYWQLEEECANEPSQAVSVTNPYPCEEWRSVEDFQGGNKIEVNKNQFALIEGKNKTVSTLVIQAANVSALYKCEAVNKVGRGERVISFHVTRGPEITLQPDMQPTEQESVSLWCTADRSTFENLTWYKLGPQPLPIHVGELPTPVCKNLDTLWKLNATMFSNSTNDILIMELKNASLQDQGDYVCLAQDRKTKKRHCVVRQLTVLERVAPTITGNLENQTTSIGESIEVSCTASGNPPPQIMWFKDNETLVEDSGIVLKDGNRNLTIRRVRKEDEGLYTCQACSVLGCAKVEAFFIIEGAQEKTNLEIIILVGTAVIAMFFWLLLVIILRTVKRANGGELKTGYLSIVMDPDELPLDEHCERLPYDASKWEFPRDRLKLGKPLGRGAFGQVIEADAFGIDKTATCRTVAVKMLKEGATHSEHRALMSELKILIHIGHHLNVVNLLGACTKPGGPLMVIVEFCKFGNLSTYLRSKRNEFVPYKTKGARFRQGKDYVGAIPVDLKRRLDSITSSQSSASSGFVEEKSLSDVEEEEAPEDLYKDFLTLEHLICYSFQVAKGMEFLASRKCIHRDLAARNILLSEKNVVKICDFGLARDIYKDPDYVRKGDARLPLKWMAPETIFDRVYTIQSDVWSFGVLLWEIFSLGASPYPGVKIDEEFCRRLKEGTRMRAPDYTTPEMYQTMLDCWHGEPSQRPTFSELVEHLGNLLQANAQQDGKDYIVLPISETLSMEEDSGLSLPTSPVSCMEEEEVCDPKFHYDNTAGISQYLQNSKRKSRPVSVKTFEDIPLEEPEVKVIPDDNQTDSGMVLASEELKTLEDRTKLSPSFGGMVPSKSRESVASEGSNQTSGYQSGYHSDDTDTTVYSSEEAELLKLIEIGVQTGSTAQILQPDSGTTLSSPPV

Kd: 471 nM
Structure (SMILES): O=c1c2ccccc2nc2n1CCc1c-2[nH]c2ccccc12 [rutaecarpine]
